Source: patent publication US11060066B2, “Human pluripotent stem cell-based models for predictive developmental neural toxicity” (priority 2014, dated 2021)

Test system: 3D neural constructs
Format: cell-based, human
Procedure: For toxicity screening experiments, cells were seeded as described above (Examples 1 and 2), but with 65,000 cells/well for ECs+MSCs (also 5:1 ratio) and 15,000 cells/well for microglia/macrophage precursors. Neural constructs were treated with non-toxic or toxic compounds starting at day 14, with media exchanged every 2 days. The following screening protocol was developed by the Thomson lab. Toxic chemicals (FIG. 10E) were chosen based on previous literature support for neurotoxicity (Adams et al., Neurotoxicol Teratol 15(3):193-202 (1993); Cooper et al., Science 280(5369):1603-1607 (1998); Crofton et al., ALTEX-Altern Anim Exp 28(1):9-15 (2011); Eskes et al. (2003); Grandjean et al., Lancet Neurol. 13:330 (2014); Lidsky (2003); Radio et al., Neurotoxicol Teratol 32(1):25-35 (2010); Zurich (2002)). […]
After reverse transcription, RNA is removed by RNaseA and RNaseH treatment. […] The indexed cDNA libraries were pooled and sequenced on an Illumina HiSeq2500 with a single 51 bp read and a 10 bp index read.
RSEM expected read counts for each gene were determined by median normalization (utilizing the median normalization function within EB Seq—version 1.5.3) (Leng et al., Bioinformatics 29(8):1035-1043 (2013)). […]

CCCCCCCC/C=C\CCCCCCCC(=O)O [oleic acid]
SVM prediction as toxic or non-toxic (control): neurotoxin
SVM probability of being toxic (ranking of blinded compounds) (human): higher probability of being toxic than L-741,626 and Ouabain
